Measurements published in patent US11718589B2, “Compositions and methods of modulating short-chain dehydrogenase” (CASE WESTERN RESERVE UNIVERSITY, priority 2017, dated 2023).

What was measured:
[1] = tested on: PGE2 in A549 cell culture; assay: Induction of PGE2 in A549 cell culture; assay type: cell-based; settings: A549 cells; for induction of PGE2 in A549 cell culture at 0.1 μM (fold): 0.1 μM compound; for induction of PGE2 in A549 cell culture at 2.5 μM (fold): 2.5 μM compound
Protocol: This Example provides data on two groups (Table 1 and Table 2) of structural analogues of identified 15-PGDH inhibitors. Data provided is the IC50 of each compound for inhibiting enzymatic activity of recombinant 15-PGDH in an in vitro assay. Recombinant 15-PGDH is human unless otherwise specified. Additionally, the example provides data for selected compounds on induction of PGE2 in A549 cell culture administered 2.5 μM or 0.1 μM of the selected compound.

[2] = target: recombinant 15-PGDH (Homo sapiens (Human), UniProt P15428); assay: Enzyme inhibition of recombinant 15-PGDH, in vitro assay; assay type: biochemical; settings: recombinant human 15-PGDH; read-out: Enzyme inhibition (IC50)
recombinant 15-PGDH, sequence (P15428 whole entry): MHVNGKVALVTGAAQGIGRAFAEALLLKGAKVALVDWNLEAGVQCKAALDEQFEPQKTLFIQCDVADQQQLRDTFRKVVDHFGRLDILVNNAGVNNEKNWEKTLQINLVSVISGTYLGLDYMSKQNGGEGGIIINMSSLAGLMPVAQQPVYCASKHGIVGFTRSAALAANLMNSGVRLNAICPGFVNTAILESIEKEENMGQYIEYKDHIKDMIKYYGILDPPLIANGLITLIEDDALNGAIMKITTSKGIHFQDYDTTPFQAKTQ

Row | SMILES | induction of PGE2 in A549 cell culture at 0.1 μM (fold) [1] [fold] | induction of PGE2 in A549 cell culture at 2.5 μM (fold) [1] [fold] | IC50 [2] [nM]
1 | CCCC[S+]([O-])c1cc2nc(-c3ccc(OC)cc3)cc(C(F)(F)F)n2n1 (stereo not shown) [3a] | 1.45 | 2.13 | 
2 | CCCC[S+]([O-])c1cc2nc(-c3ccc(OC)cc3)cc(-c3ccccc3)n2n1 (stereo not shown) [5a] | 1.08 | 1.69 | 
3 | COc1ccc(-c2cc(C(F)(F)F)n3nc(C(=O)N4CCCCC4CO)cc3n2)cc1 (stereo not shown) [17a] |  |  | < 100
4 | COc1ccc(-c2cc(C(F)(F)F)n3nc(C(=O)N4CCCCC4)cc3n2)cc1 [1a] | 1.29 | 1.89 | 24
5 | O=C(NCCO)c1ccc2nc(-c3ccccc3)c(-c3ccccc3)nc2c1 [17b] |  |  | > 2500
6 | O=C(c1cc2nc(-c3ccc(C(F)(F)F)cc3)cc(C(F)(F)F)n2n1)N1CCCCC1 [47a] |  |  | > 2500
7 | COc1ccc(-c2cc(C(F)(F)F)n3nc(C(=O)N4CCCC(CF)C4)cc3n2)cc1 (stereo not shown) [58a] |  |  | 20 to 100
8 | O=C(c1cc2nc(-c3ccccc3C(F)(F)F)cc(C(F)(F)F)n2n1)N1CCCCC1 [43a] |  |  | > 2500
9 | CC1CCCN(C(=O)c2cc3nc(-c4ccc(Cl)cc4)cc(C(F)(F)F)n3n2)C1 (stereo not shown) [75a] |  |  | 20 to 100
10 | COC(=O)CNC(=O)c1ccc2nc(-c3ccccc3)c(-c3ccccc3)nc2c1 [16b] |  |  | > 2500
11 | C=CCNC(=O)c1ccc2nc(-c3ccccc3)c(-c3ccccc3)nc2c1 [19b] |  |  | > 2500
12 | O=C(c1ccc2nc(-c3ccccc3)c(-c3ccccc3)nc2c1)N1CCCCC1CO (stereo not shown) [26b] |  |  | 100 to 500
13 | COc1ccc(-c2cc(N3CCCCC3)n3nc(C(=O)N4CCCCC4)cc3n2)cc1 [44a] |  |  | 500
14 | CCCCSc1cc2nc(-c3ccc(OC)cc3)cc(C(F)(F)F)n2n1 [2a, 2-(butylthio)-5-(4-methoxyphenyl)-7-(trifluoromethyl)pyrazolo[1,5-a]pyrimidine] |  |  | > 2500
15 | COc1ccc(-c2cc(C(F)(F)F)n3nc(C(=O)N4CCCC(C)C4)cc3n2)cc1 (stereo not shown) [19a] |  |  | 14.6
16 | Cc1c(C(N)=O)[nH]c2ccc(-c3cnc4ccc(C(=O)N5CCCCC5)cc4n3)cc12 [93b] |  |  | < 4
17 | CCOC(=O)c1[nH]c2ccc(-c3cnc4ccc(C(=O)N5CCCCC5)cc4n3)cc2c1C [91b] |  |  | ~4
18 | O=C(c1ccc2nc(-c3ccccc3)c(-c3ccccc3)nc2c1)N1CCCCC1 [1b] | 1.11 | 1.87 | 
19 | COc1ccc(-c2cc(-c3cccnc3)n3nc(C(=O)N4CCCCC4)cc3n2)cc1 [23a] |  |  | ~100
20 | COc1ccc(-c2cc(C(F)(F)F)n3nc(C(=O)N4CCCC(F)(F)C4)cc3n2)cc1 [65a] |  |  | 100
21 | COc1ccc(-c2cc(C(F)(F)F)n3nc(C(=O)N4CCCC(C(F)F)C4)cc3n2)cc1 (stereo not shown) [66a] |  |  | 20 to 100

Row | SMILES | induction of PGE2 in A549 cell culture at 0.1 μM (fold) [1] [fold] | induction of PGE2 in A549 cell culture at 2.5 μM (fold) [1] [fold] | IC50 [2] [nM]
22 | COc1ccc(-c2cc(-c3ccnc(F)c3)n3nc(C(=O)N4CCCCC4)cc3n2)cc1 [30a] |  |  | 20 to 100
23 | COc1ccc(-c2cc(C(F)(F)F)n3nc(C(=O)N4CCC(C(F)(F)F)CC4)cc3n2)cc1 [60a] |  |  | 500 to 2500
24 | CNC(=O)c1[nH]c2ccc(-c3cnc4ccc(C(=O)N5CCCCC5)cc4n3)cc2c1C [94b] |  |  | < 4
25 | COc1ccc(-c2cc(C(F)(F)F)n3nc(C(=O)N4CCCC(C)(C)C4)cc3n2)cc1 [63a] |  |  | 4 to 20
26 | Nc1ccc(-c2cnc3ccc(C(=O)N4CCCCC4)cc3n2)cc1 [63b] |  |  | 4 to 20
27 | Cn1nccc1-c1nc(-c2ccccc2)nc2cc(C(=O)N3CCCCC3)ccc12 [90b] |  |  | ~4
28 | COc1ccc(-c2cc(C)n3nc(C(=O)N4CCCCC4)cc3n2)cc1 [35a] |  |  | 100
29 | COc1ccc(-c2cc(C3CC3)n3nc(C(=O)N4CCCCC4)cc3n2)cc1 [67a] |  |  | 4 to 20
30 | O=C(c1cc2nc(N3CCCCC3)cc(C(F)(F)F)n2n1)N1CCCCC1 [39a] |  |  | 660
31 | O=C(O)c1ccc2nc(-c3ccccc3)c(-c3ccccc3)nc2c1 [21b] |  |  | > 2500
32 | COc1ccc(-c2cc(C(F)(F)F)n3nc(C(=O)N4CCC(F)CC4)cc3n2)cc1 [15a] |  |  | 42
33 | O=C(c1cc2nc(-c3cncnc3)cc(C(F)(F)F)n2n1)N1CCCCC1 [37a] |  |  | > 2500
34 | COc1ccc(-c2cc(-c3cncnc3)n3nc(C(=O)N4CCCCC4)cc3n2)cc1 [28a] |  |  | 100 to 500
35 | COc1ccc(-c2cc(-c3ccccn3)n3nc(C(=O)N4CCCCC4)cc3n2)cc1 [24a] |  |  | 20 to 100
36 | CCOc1ccc(-c2cc(C(F)(F)F)n3nc(C(=O)N4CCCCC4)cc3n2)cc1 [69a] |  |  | 500 to 2500
37 | O=C(c1ccc2nc(-c3ccccc3)c(-c3ccncc3)nc2c1)N1CCCCC1 [34b] |  |  | 20
38 | CCCC[S+]([O-])c1cc2nc(-c3ccc(OC)cc3)cc(-c3c(C)nn(C)c3C)n2n1 (stereo not shown) [74a] |  |  | 20 to 100
39 | COc1ccc(-c2cc(-c3ccccc3)n3nc(C(=O)N4CCCCC4)cc3n2)cc1 [34a] |  |  | > 500
40 | CCCC[S+]([O-])c1cc2nc(-c3ccc(OC)cc3)cc(-c3cccnc3)n2n1 (stereo not shown) [51a] |  |  | 500 to 2500
41 | O=C(c1cc2nc(-c3ccc(Cl)cc3)cc(C(F)(F)F)n2n1)N1CCCCC1 [56a] |  |  | > 2500
42 | COc1ccc(-c2cc(-c3ccnc(Cl)c3)n3nc(C(=O)N4CCCCC4)cc3n2)cc1 [25a] |  |  | > 100

Row | SMILES | induction of PGE2 in A549 cell culture at 0.1 μM (fold) [1] [fold] | induction of PGE2 in A549 cell culture at 2.5 μM (fold) [1] [fold] | IC50 [2] [nM]
43 | COc1ccc(-c2cc(-c3cccn3C)n3nc(C(=O)N4CCCCC4)cc3n2)cc1 [71a] |  |  | 20 to 100
44 | O=C(c1cc2nc(-c3ccc(F)cc3)cc(C(F)(F)F)n2n1)N1CCCCC1 [36a] |  |  | 30.7
45 | Cc1cc(-c2nc3cc(C(=O)N4CCCCC4)ccc3nc2-c2ccccc2)ccn1 [38b] |  |  | 20
46 | COc1ccc(-c2cc(C(F)(F)F)n3nc(C(=O)N4CCCC4)cc3n2)cc1 [9a] |  |  | > 2500
47 | O=C(c1ccc2ncc(-c3ccc4c(=O)[nH]cc(Cl)c4c3)nc2c1)N1CCCCC1 [92b] |  |  | < 4
48 | CCCC[S+]([O-])c1cc2nc(-c3ccc(OC)cc3)cc(-c3cn(C)nc3C)n2n1 (stereo not shown) [73a] |  |  | 500
49 | COc1ccc(-c2cc(-c3ccc(F)nc3)n3nc(C(=O)N4CCCCC4)cc3n2)cc1 [27a] |  |  | > 500
50 | CCCC[S+]([O-])c1cc2nc(-c3ccc(OC)cc3)cc(-c3cccn3C)n2n1 (stereo not shown) [54a] |  |  | 4 to 20
51 | COc1ccc(-c2cc(C(F)(F)F)n3nc(C(=O)N4CC(C)CC(C)C4)cc3n2)cc1 (stereo not shown) [57a] |  |  | 100
52 | CCCC[S+]([O-])c1cc2nc(-c3ccc(OC)cc3)cc(-c3cncnc3)n2n1 (stereo not shown) [52a] |  |  | 2500
53 | CCCC[S+]([O-])c1cc2nc(-c3ccc(OC)cc3)cc(-c3cnn(C)c3)n2n1 (stereo not shown) [53a] |  |  | 500 to 2500
54 | O=C(NCc1ccccc1)c1ccc2nc(-c3ccccc3)c(-c3ccccc3)nc2c1 [15b] |  |  | > 2500
55 | O=C(c1ccc2ncc(-c3ccc(F)cc3)nc2c1)N1CCCCC1 [42b] |  |  | 4 to 20
56 | O=C(c1ccc2nc(-c3ccccc3)c(-c3cncnc3)nc2c1)N1CCCCC1 [36b] |  |  | 20 to 100
57 | COc1ccc(-c2cc(C(F)(F)F)n3nc(C(=O)N4CCC(F)(F)CC4)cc3n2)cc1 [59a] |  |  | 100 to 500
58 | COc1ccc(-c2cc(C(F)(F)F)n3nc(C(=O)N4CCCC(=O)C4)cc3n2)cc1 [62a] |  |  | 500 to 2500
59 | COc1ccc(-c2cc(-c3cnn(C)c3)n3nc(C(=O)N4CCCCC4)cc3n2)cc1 [29a] |  |  | 20 to 100
60 | Cc1ccc(-c2cc(C(F)(F)F)n3nc(C(=O)N4CCCCC4)cc3n2)cc1 [40a] |  |  | 395
61 | COc1ccc(-c2cc(C(F)(F)F)n3nc(C(=O)N4CCCCC4C)cc3n2)cc1 (stereo not shown) [20a] |  |  | 33
62 | CCCC[S+]([O-])c1cc2nc(-c3ccc(OC)cc3)cc(-c3cnc(C)n3C)n2n1 (stereo not shown) [70a] |  |  | 100 to 500
